{
  "source": "ChEMBL document CHEMBL1275577",
  "about": "“Study of the in vitro activities of rifaximin and comparator agents against 536 anaerobic intestinal bacteria from the perspective of potential utility in pathology involving bowel flora” (Antimicrob Agents Chemother, 2009)",
  "format_in_all_cases": "functional",
  "key": {"Parabacteroides merdae": {"test_system": "Parabacteroides merdae", "assay": "Antimicrobial activity against Parabacteroides merdae by Wadsworth agar dilution method in presence of beta-lactamase inhibitor Sulbactam"}, "[1]": {"test_system": "Coprobacillus cateniformis", "assay": "Antimicrobial activity against Coprobacillus cateniformis by Wadsworth agar dilution method in presence of beta-lactamase inhibitor Sulbactam"}, "Collinsella aerofaciens": {"test_system": "Collinsella aerofaciens", "assay": "Antimicrobial activity against Colinsella aerofaciens by Wadsworth agar dilution method in presence of beta-lactamase inhibitor Sulbactam"}, "[2]": {"test_system": "Lactobacillus acidophilus", "assay": "Antimicrobial activity against Lactobacillus acidophilus by Wadsworth agar dilution method in presence of beta-lactamase inhibitor Sulbactam"}, "Schaalia odontolytica": {"test_system": "Schaalia odontolytica", "assay": "Antimicrobial activity against Actinomyces odontolyticus by Wadsworth agar dilution method in presence of beta-lactamase inhibitor Sulbactam"}, "Bacteroides stercoris": {"test_system": "Bacteroides stercoris", "assay": "Antimicrobial activity against Bacteroides stercoris by Wadsworth agar dilution method in presence of beta-lactamase inhibitor Sulbactam"}, "Atopobium minutum": {"test_system": "Atopobium minutum", "assay": "Antimicrobial activity against Atopobium minutum by Wadsworth agar dilution method in presence of beta-lactamase inhibitor Sulbactam"}, "Eubacterium saburreum": {"test_system": "Eubacterium saburreum", "assay": "Antimicrobial activity against Eubacterium saburreum by Wadsworth agar dilution method in presence of beta-lactamase inhibitor Sulbactam", "conditions": "Lachnoanaerobaculum saburreum"}, "Clostridium sporogenes": {"test_system": "Clostridium sporogenes", "assay": "Antimicrobial activity against Clostridium sporogenes by Wadsworth agar dilution method in presence of beta-lactamase inhibitor Sulbactam"}, "[3]": {"test_system": "Lactobacillus catenaformis", "assay": "Antimicrobial activity against Lactobacillus catenaformis by Wadsworth agar dilution method in presence of beta-lactamase inhibitor Sulbactam", "conditions": "Eggerthia catenaformis"}, "Bacteroides caccae": {"test_system": "Bacteroides caccae", "assay": "Antimicrobial activity against Bacteroides caccae by Wadsworth agar dilution method in presence of beta-lactamase inhibitor Sulbactam"}, "Tissierella praeacuta": {"test_system": "Tissierella praeacuta", "assay": "Antimicrobial activity against Clostridium hastiforme by Wadsworth agar dilution method in presence of beta-lactamase inhibitor Sulbactam"}, "Clostridium leptum": {"test_system": "Clostridium leptum", "assay": "Antimicrobial activity against Clostridium leptum by Wadsworth agar dilution method in presence of beta-lactamase inhibitor Sulbactam"}, "Bacteroides fragilis": {"test_system": "Bacteroides fragilis", "assay": "Antimicrobial activity against Bacteroides fragilis by Wadsworth agar dilution method in presence of beta-lactamase inhibitor Sulbactam"}, "Eubacterium cylindroides": {"test_system": "Eubacterium cylindroides", "assay": "Antimicrobial activity against Eubacterium cylindroides by Wadsworth agar dilution method in presence of beta-lactamase inhibitor Sulbactam", "conditions": "Faecalitalea cylindroides"}, "[Clostridium] innocuum": {"test_system": "[Clostridium] innocuum", "assay": "Antimicrobial activity against Clostridium innocuum by Wadsworth agar dilution method in presence of beta-lactamase inhibitor Sulbactam"}, "Eggerthella lenta": {"test_system": "Eggerthella lenta", "assay": "Antimicrobial activity against Eggerthella lenta by Wadsworth agar dilution method in presence of beta-lactamase inhibitor Sulbactam"}, "Bifidobacterium bifidum": {"test_system": "Bifidobacterium bifidum", "assay": "Antimicrobial activity against Bifidobacterium bifidum by Wadsworth agar dilution method in presence of beta-lactamase inhibitor Sulbactam"}, "[4]": {"test_system": "Desulfovibrio fairfieldensis", "assay": "Antimicrobial activity against Desulfovibrio fairfieldensis by Wadsworth agar dilution method in presence of beta-lactamase inhibitor Sulbactam"}, "[5]": {"test_system": "Enterocloster clostridioformis", "assay": "Antimicrobial activity against Clostridium clostridioforme by Wadsworth agar dilution method in presence of beta-lactamase inhibitor Sulbactam"}, "Bifidobacterium longum": {"test_system": "Bifidobacterium longum", "assay": "Antimicrobial activity against Bifidobacterium longum by Wadsworth agar dilution method in presence of beta-lactamase inhibitor Sulbactam"}, "[6]": {"test_system": "Porphyromonas asaccharolytica", "assay": "Antimicrobial activity against Porphyromonas asaccharolyticus by Wadsworth agar dilution method in presence of beta-lactamase inhibitor Sulbactam"}, "[7]": {"test_system": "Desulfovibrio desulfuricans", "assay": "Antimicrobial activity against Desulfovibrio desulfuricans by Wadsworth agar dilution method in presence of beta-lactamase inhibitor Sulbactam"}, "[8]": {"test_system": "Catenibacterium mitsuokai", "assay": "Antimicrobial activity against Catenibacterium mitsuokai by Wadsworth agar dilution method in presence of beta-lactamase inhibitor Sulbactam"}, "Clostridium nexile": {"test_system": "Clostridium nexile", "assay": "Antimicrobial activity against Clostridium nexile by Wadsworth agar dilution method in presence of beta-lactamase inhibitor Sulbactam", "conditions": "Faecalimonas nexilis"}, "Lactobacillus sp.": {"test_system": "Lactobacillus sp.", "assay": "Antimicrobial activity against Lactobacillus sp. by Wadsworth agar dilution method in presence of beta-lactamase inhibitor Sulbactam"}},
  "data": [
    {"smiles": "CC1(C)S[C@@H]2[C@H](NC(=O)[C@H](N)c3ccccc3)C(=O)N2[C@H]1C(=O)O", "note": "[AMPICILLIN]", "values": [
      {"measurement": "MIC50", "setting": "Parabacteroides merdae", "result": 16, "unit": "µg/mL"},
      {"measurement": "MIC90", "setting": "Parabacteroides merdae", "result": 32, "unit": "µg/mL"},
      {"measurement": "MIC", "setting": "[1]", "result": 0.25, "unit": "µg/mL"},
      {"measurement": "MIC50", "setting": "[1]", "result": 0.25, "unit": "µg/mL"},
      {"measurement": "MIC90", "setting": "[1]", "result": 2, "unit": "µg/mL"},
      {"measurement": "MIC", "setting": "Collinsella aerofaciens", "result": 0.25, "unit": "µg/mL"},
      {"measurement": "MIC50", "setting": "Collinsella aerofaciens", "result": 0.25, "unit": "µg/mL"},
      {"measurement": "MIC90", "setting": "Collinsella aerofaciens", "result": 2, "unit": "µg/mL"},
      {"measurement": "MIC", "setting": "[2]", "result": 0.25, "unit": "µg/mL"},
      {"measurement": "MIC50", "setting": "[2]", "result": 0.25, "unit": "µg/mL"},
      {"measurement": "MIC90", "setting": "[2]", "result": 2, "unit": "µg/mL"},
      {"measurement": "MIC", "setting": "Schaalia odontolytica", "result": 0.25, "unit": "µg/mL"},
      {"measurement": "MIC50", "setting": "Schaalia odontolytica", "result": 0.25, "unit": "µg/mL"},
      {"measurement": "MIC90", "setting": "Schaalia odontolytica", "result": 2, "unit": "µg/mL"},
      {"measurement": "MIC50", "setting": "Bacteroides stercoris", "result": 2, "unit": "µg/mL"},
      {"measurement": "MIC90", "setting": "Bacteroides stercoris", "result": 16, "unit": "µg/mL"},
      {"measurement": "MIC", "setting": "Atopobium minutum", "result": 0.25, "unit": "µg/mL"},
      {"measurement": "MIC50", "setting": "Atopobium minutum", "result": 0.25, "unit": "µg/mL"},
      {"measurement": "MIC90", "setting": "Atopobium minutum", "result": 2, "unit": "µg/mL"},
      {"measurement": "MIC", "setting": "Eubacterium saburreum", "result": 0.25, "unit": "µg/mL"},
      {"measurement": "MIC50", "setting": "Eubacterium saburreum", "result": 0.25, "unit": "µg/mL"},
      {"measurement": "MIC90", "setting": "Eubacterium saburreum", "result": 2, "unit": "µg/mL"},
      {"measurement": "MIC", "setting": "Clostridium sporogenes", "result": 0.25, "unit": "µg/mL"},
      {"measurement": "MIC50", "setting": "Clostridium sporogenes", "result": 0.25, "unit": "µg/mL"},
      {"measurement": "MIC90", "setting": "Clostridium sporogenes", "result": 1, "unit": "µg/mL"},
      {"measurement": "MIC", "setting": "[3]", "result": 0.25, "unit": "µg/mL"},
      {"measurement": "MIC50", "setting": "[3]", "result": 0.25, "unit": "µg/mL"},
      {"measurement": "MIC90", "setting": "[3]", "result": 2, "unit": "µg/mL"},
      {"measurement": "MIC50", "setting": "Bacteroides caccae", "result": 16, "unit": "µg/mL"},
      {"measurement": "MIC90", "setting": "Bacteroides caccae", "result": 32, "unit": "µg/mL"},
      {"measurement": "MIC", "setting": "Tissierella praeacuta", "result": 0.25, "unit": "µg/mL"},
      {"measurement": "MIC50", "setting": "Tissierella praeacuta", "result": 0.25, "unit": "µg/mL"},
      {"measurement": "MIC90", "setting": "Tissierella praeacuta", "result": 1, "unit": "µg/mL"},
      {"measurement": "MIC", "setting": "Clostridium leptum", "result": 0.25, "unit": "µg/mL"},
      {"measurement": "MIC50", "setting": "Clostridium leptum", "result": 0.25, "unit": "µg/mL"},
      {"measurement": "MIC90", "setting": "Clostridium leptum", "result": 1, "unit": "µg/mL"},
      {"measurement": "MIC50", "setting": "Bacteroides fragilis", "result": 1, "unit": "µg/mL"},
      {"measurement": "MIC90", "setting": "Bacteroides fragilis", "result": 16, "unit": "µg/mL"},
      {"measurement": "MIC", "setting": "Eubacterium cylindroides", "result": 0.25, "unit": "µg/mL"},
      {"measurement": "MIC50", "setting": "Eubacterium cylindroides", "result": 0.25, "unit": "µg/mL"},
      {"measurement": "MIC90", "setting": "Eubacterium cylindroides", "result": 2, "unit": "µg/mL"},
      {"measurement": "MIC", "setting": "[Clostridium] innocuum", "result": 0.25, "unit": "µg/mL"},
      {"measurement": "MIC50", "setting": "[Clostridium] innocuum", "result": 0.25, "unit": "µg/mL"},
      {"measurement": "MIC90", "setting": "[Clostridium] innocuum", "result": 0.5, "unit": "µg/mL"},
      {"measurement": "MIC", "setting": "Eggerthella lenta", "result": 0.25, "unit": "µg/mL"},
      {"measurement": "MIC50", "setting": "Eggerthella lenta", "result": 0.25, "unit": "µg/mL"},
      {"measurement": "MIC90", "setting": "Eggerthella lenta", "result": 2, "unit": "µg/mL"},
      {"measurement": "MIC", "setting": "Bifidobacterium bifidum", "result": 0.25, "unit": "µg/mL"},
      {"measurement": "MIC50", "setting": "Bifidobacterium bifidum", "result": 0.25, "unit": "µg/mL"},
      {"measurement": "MIC90", "setting": "Bifidobacterium bifidum", "result": 2, "unit": "µg/mL"},
      {"measurement": "MIC50", "setting": "[4]", "result": 4, "unit": "µg/mL"},
      {"measurement": "MIC90", "setting": "[4]", "result": 32, "unit": "µg/mL"},
      {"measurement": "MIC", "setting": "[5]", "result": 1, "unit": "µg/mL"},
      {"measurement": "MIC50", "setting": "[5]", "result": 1, "unit": "µg/mL"},
      {"measurement": "MIC90", "setting": "[5]", "result": 16, "unit": "µg/mL"},
      {"measurement": "MIC", "setting": "Bifidobacterium longum", "result": 0.25, "unit": "µg/mL"},
      {"measurement": "MIC50", "setting": "Bifidobacterium longum", "result": 0.25, "unit": "µg/mL"},
      {"measurement": "MIC90", "setting": "Bifidobacterium longum", "result": 2, "unit": "µg/mL"},
      {"measurement": "MIC", "setting": "[6]", "result": 0.25, "unit": "µg/mL"},
      {"measurement": "MIC50", "setting": "[6]", "result": 0.25, "unit": "µg/mL"},
      {"measurement": "MIC90", "setting": "[6]", "result": 0.5, "unit": "µg/mL"},
      {"measurement": "MIC50", "setting": "[7]", "result": 8, "unit": "µg/mL"},
      {"measurement": "MIC90", "setting": "[7]", "result": 8, "unit": "µg/mL"},
      {"measurement": "MIC", "setting": "[8]", "result": 0.25, "unit": "µg/mL"},
      {"measurement": "MIC50", "setting": "[8]", "result": 0.25, "unit": "µg/mL"},
      {"measurement": "MIC90", "setting": "[8]", "result": 2, "unit": "µg/mL"},
      {"measurement": "MIC", "setting": "Clostridium nexile", "result": 0.25, "unit": "µg/mL"},
      {"measurement": "MIC50", "setting": "Clostridium nexile", "result": 0.25, "unit": "µg/mL"},
      {"measurement": "MIC90", "setting": "Clostridium nexile", "result": 1, "unit": "µg/mL"},
      {"measurement": "MIC", "setting": "Lactobacillus sp.", "result": 0.25, "unit": "µg/mL"},
      {"measurement": "MIC50", "setting": "Lactobacillus sp.", "result": 0.25, "unit": "µg/mL"},
      {"measurement": "MIC90", "setting": "Lactobacillus sp.", "result": 2, "unit": "µg/mL"}
    ]}
  ]
}
